SMILES strings stand for the structures.

A short description of this data set: gradient 5% acetonitrile 3 min, to 50% in 2 min, to 85% in 15 min, held 3 min, 100 µL/min. Conditions: column: Zorbax Extend-C18 2.1 x 50 mm; eluents: water / acetonitrile, 0.1% formic acid. Summed up:
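Values are retention times taken from adduct peaks that software picked and an analyst inspected. The pure standards were run as mixtures of ~100 molecules on HPLC linked to a quadrupole time-of-flight mass spectrometer, in positive and negative ionization mode. A Zorbax Extend-C18 column (2.1 × 50 mm, 1.8 μm) was used at 100 μL/min with water and acetonitrile, each including 0.1% formic acid.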
In turn, `COc1ccc(CCC(=O)NC2CCN(c3nnc4ccc(C(F)(F)F)cn34)CC2)cc1` gave an RP-LC retention time of 767 s. The molecule `c1ccc(-c2nc3cc(-c4noc(C5CCOC5)n4)ccc3o2)cc1` (configuration not stated) came in with an RP-LC retention time of 1100 s. Next, `Clc1ccc(-c2nc3cnccn3c2Nc2ccc3c(c2)OCCO3)cc1`: 891 s; `CC(C(=O)NCCN1CCCCC1)n1c(=O)c(C(F)(F)F)nc2ccccc21` (configuration not stated): 601 s; `Nc1ccc(Nc2ccccc2)c(S(=O)(=O)O)c1`: 639 s. As for `Brc1ccc(C(c2nnc(-c3ccccc3)o2)N2CCN(c3ncccn3)CC2)cc1` (configuration not stated), the RP-LC retention time was found to be 1170 s. On to `CCc1ccc(NC(=O)C2CCCN2S(=O)(=O)c2cc3c(cc2Cl)NC(=O)CO3)cc1` (configuration not stated), for which the RP-LC retention time came to 868 s. `CC(=O)OCCN1c2ccccc2Sc2cnccc21` yielded an RP-LC retention time of 663 s.

Molecule `COc1ncc(C(=O)NCc2cccc(Br)c2)cn1` showed an RP-LC retention time of 779 s.

Consider `O=S(=O)(Cc1ccc(F)cc1)NCC1(c2ccccc2)CCOCC1`, for which the RP-LC retention time worked out at 818 s. With `COc1cc(C(=O)N2CCN(c3cc(C)c4ccccc4n3)CC2)cc(OC)c1OC`, the RP-LC retention time was determined as 635 s. Next, `O=C(Nc1cc(-c2cccs2)nn1CCO)C1COc2ccccc2O1` (configuration not stated): 784 s. Molecule `Cc1nc(-c2cccc(NC(=O)c3ccc(-n4ccnc4C)nn3)c2)cs1` returned an RP-LC retention time of 581 s. `O=C(NCc1ccco1)C1CCN(c2ncccc2-c2nc(-c3ccc(Cl)cc3)no2)CC1` gave an RP-LC retention time of 1090 s. Take `O=C(c1cccc(F)c1)N1CCC(C(=O)N2CCN(Cc3ccc4c(c3)OCO4)CC2)CC1`: the RP-LC retention time is 610 s. `Cc1ccc(-n2nc3c(N4CCCC(C(=O)NCc5ccccc5C)C4)nnc(C)c3c2C)cc1` (configuration not stated): the RP-LC retention time worked out at 779 s.

In the case of `Cc1ccc(Oc2nccnc2N2CCCC(C(=O)NCc3ccc(C)c(C)c3)C2)cc1` (configuration not stated), the RP-LC retention time is 1140 s. Molecule `O=C(NCc1cccc(C(F)(F)F)c1)C1CCN(c2cnc3nccnc3c2)CC1` yielded an RP-LC retention time of 754 s. In the case of `CC(C)n1c(=O)sc2cc(S(=O)(=O)N3CCC(C(=O)N4CCCCC4)CC3)ccc21` it was 900 s; in that of `O=C(C1CC1)N1CCC2(CCCCO2)CC1`, 668 s. In turn, `COc1ccc(CNC(=O)C2(C)CCN(S(=O)(=O)c3cccc(Cl)c3C)CC2)cc1` returned an RP-LC retention time of 1030 s.

`COc1cccc(-c2ccnc3nc(Cc4ccc(F)cc4)nn23)c1` had an RP-LC retention time of 922 s. With `COc1cccc(-c2nc(Cn3cnc4nc5c(cc4c3=O)CC(C)CC5)c(C)o2)c1OC` (configuration not stated), the RP-LC retention time was determined as 941 s. Take `N#Cc1cccc(N2C=C(C(=O)N3CCCCC3)S(=O)(=O)c3ccc(F)cc32)c1`: the RP-LC retention time is 827 s.

`CC(C)(C)C(=O)N1CCCC1c1nc2ccccc2s1` (configuration not stated) had an RP-LC retention time of 932 s. Next, `O=C(CN1CCc2[nH]c3c(F)c(Cl)ccc3c(=O)c2C1)Nc1cc(F)cc(F)c1`: 699 s; `Cc1cc2nn(CC(=O)N3CCC(C)CC3)c(=O)n2c(-c2ccc(Cl)cc2)n1`: 867 s. Regarding `O=C(NCc1ccc(F)cc1)C1CCN(C(=O)C2Sc3ccccc3NC2=O)CC1` (configuration not stated), the RP-LC retention time amounted to 804 s. The molecule `COc1ccc(-n2ncc3c(=O)n(Cc4nc(-c5cccc(OC)c5)no4)cnc32)cc1` came in with an RP-LC retention time of 984 s. For `Cc1cc(-c2nnc(C3CC3)o2)c(C)n1CC(=O)NCc1ccc(F)c(Cl)c1`, the RP-LC retention time was 848 s. Regarding `CCOc1ccc(S(=O)(=O)N(CC(=O)N2CCNCC2)C(C)C)cc1`, the RP-LC retention time was found to be 625 s. Turning to `CCCNS(=O)(=O)c1c(C)sc(C)c1-c1cc(C(F)(F)F)on1`, the RP-LC retention time is 1130 s.

These data come from the METLIN SMRT retention time set (Domingo-Almenara et al. 2019).
